# According to ChEMBL document CHEMBL2057090, “Discovery of novel PI3Kγ/δ inhibitors as potential agents for inflammation” (Bioorg Med Chem Lett, 2012):
# Molecular target: Phosphatidylinositol 4,5-bisphosphate 3-kinase catalytic subunit alpha isoform (Homo sapiens, UniProt P42336)
# Assay: Inhibition of PI3Kalpha in human HL60 cell lysate by kinobead assay
# Conditions: not given; call rule not given here
# Chain of Phosphatidylinositol 4,5-bisphosphate 3-kinase catalytic subunit alpha isoform (P42336 whole entry, canonical isoform): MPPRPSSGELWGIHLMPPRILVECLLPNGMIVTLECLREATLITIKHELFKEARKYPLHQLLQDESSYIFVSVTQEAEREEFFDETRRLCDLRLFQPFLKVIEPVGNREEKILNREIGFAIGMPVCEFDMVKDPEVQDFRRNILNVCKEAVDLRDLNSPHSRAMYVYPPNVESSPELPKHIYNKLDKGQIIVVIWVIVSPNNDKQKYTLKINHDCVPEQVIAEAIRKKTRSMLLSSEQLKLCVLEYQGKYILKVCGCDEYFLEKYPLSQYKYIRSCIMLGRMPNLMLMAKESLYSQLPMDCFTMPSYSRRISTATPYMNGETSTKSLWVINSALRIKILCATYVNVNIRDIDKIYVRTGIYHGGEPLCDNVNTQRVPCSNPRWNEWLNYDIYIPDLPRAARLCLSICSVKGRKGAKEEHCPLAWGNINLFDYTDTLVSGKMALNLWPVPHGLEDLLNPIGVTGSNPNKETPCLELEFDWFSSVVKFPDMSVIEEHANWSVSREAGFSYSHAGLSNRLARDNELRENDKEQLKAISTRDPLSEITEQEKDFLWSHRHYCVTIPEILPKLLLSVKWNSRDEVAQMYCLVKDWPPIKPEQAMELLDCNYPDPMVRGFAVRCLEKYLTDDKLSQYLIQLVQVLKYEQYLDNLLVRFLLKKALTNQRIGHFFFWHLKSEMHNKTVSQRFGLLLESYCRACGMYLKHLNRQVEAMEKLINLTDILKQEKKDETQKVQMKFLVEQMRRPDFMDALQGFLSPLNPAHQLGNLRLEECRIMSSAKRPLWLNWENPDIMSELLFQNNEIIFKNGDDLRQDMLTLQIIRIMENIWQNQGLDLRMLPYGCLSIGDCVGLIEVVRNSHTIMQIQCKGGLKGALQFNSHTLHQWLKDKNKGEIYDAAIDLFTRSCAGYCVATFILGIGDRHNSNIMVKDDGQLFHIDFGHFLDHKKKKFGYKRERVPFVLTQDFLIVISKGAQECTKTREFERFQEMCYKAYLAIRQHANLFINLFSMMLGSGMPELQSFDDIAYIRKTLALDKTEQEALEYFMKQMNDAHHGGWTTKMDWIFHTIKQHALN
row,SMILES,IC50
1,CC(C)(C)NS(=O)(=O)c1cncc(-c2ccc3nc(NC(=O)N4CCOCC4)nn3c2)c1,> 25100 nM
2,CS(=O)(=O)c1cncc(-c2ccc3nc(N)nn3c2)c1,10000 nM
3,CC(C)(C)NS(=O)(=O)c1cncc(-c2ccc3nc(NC(=O)NCCCn4nnc(C5CC5)n4)nn3c2)c1,> 6310 nM
4,CN(C)CCNC(=O)Nc1nc2ccc(-c3cncc(S(=O)(=O)NC(C)(C)C)c3)cn2n1,> 5010 nM
5,CC(C)(C)NS(=O)(=O)c1cncc(-c2ccc3nc(NC(=O)NCCc4cnccn4)nn3c2)c1,1260 nM
6,CC(C)(C)NS(=O)(=O)c1cncc(-c2ccc3nc(N)nn3c2)c1,2510 nM

# Compounds with a lower IC50, results first:
row,IC50,SMILES
1,1000 nM,CC(C)(C)NS(=O)(=O)c1cncc(-c2ccc3nc(NC(=O)NCC(=O)N4CCCC4)nn3c2)c1
2,794 nM,Cc1nc(CCNC(=O)Nc2nc3ccc(-c4cncc(S(=O)(=O)NC(C)(C)C)c4)cn3n2)cs1
3,794 nM,CC(C)(C)NS(=O)(=O)c1cncc(-c2ccc3nc(NC(=O)NCCn4nnc(C5CC5)n4)nn3c2)c1
4,794 nM,CN1CCN(C(=O)CNC(=O)Nc2nc3ccc(-c4cncc(S(=O)(=O)NC(C)(C)C)c4)cn3n2)CC1
5,398 nM,CC(C)(C)NS(=O)(=O)c1cncc(-c2ccc3nc(NC(=O)NCC(=O)N4CCOCC4)nn3c2)c1

# Tested on: not listed separately
# Assay: Antiinflammatory activity in human neutrophils assessed as inhibition of fMLP-induced migration
# Format: functional, cell-based
# Conditions: Neutrophil
row,SMILES,IC50
1,CC(C)(C)NS(=O)(=O)c1cncc(-c2ccc3nc(NC(=O)N4CCOCC4)nn3c2)c1,7940 nM
2,CC(C)(C)NS(=O)(=O)c1cncc(-c2ccc3nc(NC(=O)NCCCn4nnc(C5CC5)n4)nn3c2)c1,251 nM
3,CN(C)CCNC(=O)Nc1nc2ccc(-c3cncc(S(=O)(=O)NC(C)(C)C)c3)cn2n1,12600 nM
4,CC(C)(C)NS(=O)(=O)c1cncc(-c2ccc3nc(NC(=O)NCCc4cnccn4)nn3c2)c1,126 nM
5,CC(C)(C)NS(=O)(=O)c1cncc(-c2ccc3nc(N)nn3c2)c1,1000 nM

# Now from value to compound:
row,IC50,SMILES
1,1580 nM,CC(C)(C)NS(=O)(=O)c1cncc(-c2ccc3nc(NC(=O)NCC(=O)N4CCCC4)nn3c2)c1
2,398 nM,Cc1nc(CCNC(=O)Nc2nc3ccc(-c4cncc(S(=O)(=O)NC(C)(C)C)c4)cn3n2)cs1
3,79.4 nM,CC(C)(C)NS(=O)(=O)c1cncc(-c2ccc3nc(NC(=O)NCCn4nnc(C5CC5)n4)nn3c2)c1
4,1260 nM,CN1CCN(C(=O)CNC(=O)Nc2nc3ccc(-c4cncc(S(=O)(=O)NC(C)(C)C)c4)cn3n2)CC1
5,501 nM,CC(C)(C)NS(=O)(=O)c1cncc(-c2ccc3nc(NC(=O)NCC(=O)N4CCOCC4)nn3c2)c1

# Molecular target: Phosphatidylinositol 4,5-bisphosphate 3-kinase catalytic subunit gamma isoform (Homo sapiens, UniProt P48736)
# Assay: Inhibition of PI3Kgamma in human HL60 cell lysate by kinobead assay
# Conditions: not given
# Chain of Phosphatidylinositol 4,5-bisphosphate 3-kinase catalytic subunit gamma isoform (P48736 whole entry, canonical isoform): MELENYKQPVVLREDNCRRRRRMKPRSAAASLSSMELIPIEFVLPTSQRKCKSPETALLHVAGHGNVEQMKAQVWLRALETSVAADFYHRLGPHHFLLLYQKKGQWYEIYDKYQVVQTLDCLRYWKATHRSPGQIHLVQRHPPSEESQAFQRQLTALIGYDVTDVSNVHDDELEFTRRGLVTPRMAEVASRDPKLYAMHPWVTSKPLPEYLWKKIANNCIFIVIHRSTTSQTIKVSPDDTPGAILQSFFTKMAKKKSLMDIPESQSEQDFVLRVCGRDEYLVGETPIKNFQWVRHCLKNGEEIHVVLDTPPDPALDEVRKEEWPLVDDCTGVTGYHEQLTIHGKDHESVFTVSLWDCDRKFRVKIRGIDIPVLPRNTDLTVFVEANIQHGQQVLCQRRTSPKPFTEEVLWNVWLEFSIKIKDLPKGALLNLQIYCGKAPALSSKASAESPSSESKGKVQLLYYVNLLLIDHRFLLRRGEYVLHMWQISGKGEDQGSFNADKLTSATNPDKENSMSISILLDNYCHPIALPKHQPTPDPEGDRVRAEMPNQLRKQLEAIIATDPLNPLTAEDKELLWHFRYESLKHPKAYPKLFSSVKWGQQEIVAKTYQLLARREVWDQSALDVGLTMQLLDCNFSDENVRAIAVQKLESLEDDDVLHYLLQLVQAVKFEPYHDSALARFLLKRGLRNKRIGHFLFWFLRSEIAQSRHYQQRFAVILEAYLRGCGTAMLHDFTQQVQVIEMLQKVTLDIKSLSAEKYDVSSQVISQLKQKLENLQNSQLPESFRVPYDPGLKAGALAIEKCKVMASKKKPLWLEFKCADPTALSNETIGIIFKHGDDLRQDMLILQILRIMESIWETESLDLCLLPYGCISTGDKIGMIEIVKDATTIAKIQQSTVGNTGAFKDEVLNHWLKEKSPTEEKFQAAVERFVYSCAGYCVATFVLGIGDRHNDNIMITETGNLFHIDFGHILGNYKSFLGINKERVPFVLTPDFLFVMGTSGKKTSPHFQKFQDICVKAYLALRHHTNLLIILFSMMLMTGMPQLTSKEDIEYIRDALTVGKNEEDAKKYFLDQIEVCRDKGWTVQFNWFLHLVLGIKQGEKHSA
row,SMILES,IC50
1,CC(C)(C)NS(=O)(=O)c1cncc(-c2ccc3nc(NC(=O)N4CCOCC4)nn3c2)c1,126 nM
2,CS(=O)(=O)c1cncc(-c2ccc3nc(N)nn3c2)c1,100 nM
3,CC(C)(C)NS(=O)(=O)c1cncc(-c2ccc3nc(NC(=O)NCCCn4nnc(C5CC5)n4)nn3c2)c1,63.1 nM
4,CN(C)CCNC(=O)Nc1nc2ccc(-c3cncc(S(=O)(=O)NC(C)(C)C)c3)cn2n1,126 nM
5,CC(C)(C)NS(=O)(=O)c1cncc(-c2ccc3nc(NC(=O)NCCc4cnccn4)nn3c2)c1,6.31 nM
6,CC(C)(C)NS(=O)(=O)c1cncc(-c2ccc3nc(N)nn3c2)c1,25.1 nM

# Other lines, results leading:
row,IC50,SMILES
1,6.31 nM,CC(C)(C)NS(=O)(=O)c1cncc(-c2ccc3nc(NC(=O)NCC(=O)N4CCCC4)nn3c2)c1
2,7.94 nM,Cc1nc(CCNC(=O)Nc2nc3ccc(-c4cncc(S(=O)(=O)NC(C)(C)C)c4)cn3n2)cs1
3,2.51 nM,CC(C)(C)NS(=O)(=O)c1cncc(-c2ccc3nc(NC(=O)NCCn4nnc(C5CC5)n4)nn3c2)c1
4,2.51 nM,CN1CCN(C(=O)CNC(=O)Nc2nc3ccc(-c4cncc(S(=O)(=O)NC(C)(C)C)c4)cn3n2)CC1
5,3.98 nM,CC(C)(C)NS(=O)(=O)c1cncc(-c2ccc3nc(NC(=O)NCC(=O)N4CCOCC4)nn3c2)c1

# Tested on: Plasma
# Assay: Drug metabolism in iv dosed rat plasma assessed as 2-(3-(6-(5-(N-tert-butylsulfamoyl)pyridin-3-yl)-[1,2,4]triazolo[1,5-a]pyridin-2-yl)ureido)acetic acid formation
# Format: ADME, organism-based
# Conditions: in vivo
row,SMILES,Drug metabolism
1,CC(C)(C)NS(=O)(=O)c1cncc(-c2ccc3nc(NC(=O)NCC(=O)N4CCOCC4)nn3c2)c1,Not Active

# Tested on: not listed separately
# Assay: Clearance in iv dosed rat
# Format: ADME, organism-based
# Conditions: in vivo
row,SMILES,clearance
1,CC(C)(C)NS(=O)(=O)c1cncc(-c2ccc3nc(NC(=O)NCC(=O)N4CCOCC4)nn3c2)c1,> 200 mL/min/kg

# Tested on: not listed separately
# Assay: Apparent permeability from apical to basal side of human Caco2 cells
# Format: ADME, cell-based
# Conditions: Caco-2
row,SMILES,Papp A→B
1,CC(C)(C)NS(=O)(=O)c1cncc(-c2ccc3nc(NC(=O)NCCn4nnc(C5CC5)n4)nn3c2)c1,0.08 ×10⁻⁶ cm/s

# Tested on: Plasma
# Assay: Drug metabolism in iv dosed rat plasma assessed as CZC19945 formation
# Format: ADME, organism-based
# Conditions: in vivo
row,SMILES,Drug metabolism
1,CC(C)(C)NS(=O)(=O)c1cncc(-c2ccc3nc(NC(=O)NCC(=O)N4CCOCC4)nn3c2)c1,Not Active

# Tested on: Liver microsomes
# Assay: Intrinsic clearance in human liver microsomes assessed per g of liver
# Format: ADME, Microsome
# Conditions: not given
row,SMILES,CLint
1,CC(C)(C)NS(=O)(=O)c1cncc(-c2ccc3nc(NC(=O)NCC(=O)N4CCOCC4)nn3c2)c1,0 mL/min/g
2,CC(C)(C)NS(=O)(=O)c1cncc(-c2ccc3nc(NC(=O)NCCn4nnc(C5CC5)n4)nn3c2)c1,0 mL/min/g

# Molecular target: Phosphatidylinositol 4,5-bisphosphate 3-kinase catalytic subunit beta isoform (Homo sapiens, UniProt P42338)
# Assay: Inhibition of PI3Kbeta in human HL60 cell lysate by kinobead assay
# Format: cell-free, HL-60
# Conditions: not given
# Chain of Phosphatidylinositol 4,5-bisphosphate 3-kinase catalytic subunit beta isoform (P42338 whole entry, canonical isoform): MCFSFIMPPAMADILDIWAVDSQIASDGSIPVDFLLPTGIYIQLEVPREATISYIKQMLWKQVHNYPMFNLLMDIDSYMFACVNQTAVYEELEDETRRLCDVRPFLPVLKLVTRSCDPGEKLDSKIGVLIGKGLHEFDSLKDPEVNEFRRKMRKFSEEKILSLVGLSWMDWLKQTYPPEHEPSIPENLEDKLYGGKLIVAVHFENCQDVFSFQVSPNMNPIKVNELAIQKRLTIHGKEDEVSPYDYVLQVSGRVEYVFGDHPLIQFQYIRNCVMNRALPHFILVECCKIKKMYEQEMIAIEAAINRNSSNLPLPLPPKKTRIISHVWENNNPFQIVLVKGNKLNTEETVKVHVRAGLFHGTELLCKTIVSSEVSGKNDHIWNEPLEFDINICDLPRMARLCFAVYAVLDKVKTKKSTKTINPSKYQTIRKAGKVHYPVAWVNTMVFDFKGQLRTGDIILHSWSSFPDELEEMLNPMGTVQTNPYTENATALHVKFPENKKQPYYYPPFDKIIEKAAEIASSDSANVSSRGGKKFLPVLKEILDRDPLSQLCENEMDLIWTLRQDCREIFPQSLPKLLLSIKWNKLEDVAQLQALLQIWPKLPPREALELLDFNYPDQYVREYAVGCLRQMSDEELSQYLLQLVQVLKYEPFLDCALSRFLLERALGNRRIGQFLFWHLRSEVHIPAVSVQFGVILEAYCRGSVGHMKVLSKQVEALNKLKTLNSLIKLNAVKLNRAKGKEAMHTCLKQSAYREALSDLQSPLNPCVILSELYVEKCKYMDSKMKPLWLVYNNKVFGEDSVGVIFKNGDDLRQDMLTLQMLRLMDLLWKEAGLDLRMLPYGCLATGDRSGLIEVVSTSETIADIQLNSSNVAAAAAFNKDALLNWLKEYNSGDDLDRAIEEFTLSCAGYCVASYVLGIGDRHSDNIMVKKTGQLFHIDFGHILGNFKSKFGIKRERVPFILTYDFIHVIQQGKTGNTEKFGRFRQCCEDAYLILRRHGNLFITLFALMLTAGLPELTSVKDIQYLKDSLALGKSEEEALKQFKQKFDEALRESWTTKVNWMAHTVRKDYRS
row,SMILES,IC50
1,CC(C)(C)NS(=O)(=O)c1cncc(-c2ccc3nc(NC(=O)N4CCOCC4)nn3c2)c1,3980 nM
2,CS(=O)(=O)c1cncc(-c2ccc3nc(N)nn3c2)c1,2510 nM
3,CC(C)(C)NS(=O)(=O)c1cncc(-c2ccc3nc(NC(=O)NCCCn4nnc(C5CC5)n4)nn3c2)c1,2510 nM
4,CN(C)CCNC(=O)Nc1nc2ccc(-c3cncc(S(=O)(=O)NC(C)(C)C)c3)cn2n1,> 1000 nM
5,CC(C)(C)NS(=O)(=O)c1cncc(-c2ccc3nc(NC(=O)NCCc4cnccn4)nn3c2)c1,126 nM
6,CC(C)(C)NS(=O)(=O)c1cncc(-c2ccc3nc(N)nn3c2)c1,200 nM

# Further lines, results first:
row,IC50,SMILES
1,1260 nM,CC(C)(C)NS(=O)(=O)c1cncc(-c2ccc3nc(NC(=O)NCC(=O)N4CCCC4)nn3c2)c1
2,> 200 nM,Cc1nc(CCNC(=O)Nc2nc3ccc(-c4cncc(S(=O)(=O)NC(C)(C)C)c4)cn3n2)cs1
3,63.1 nM,CC(C)(C)NS(=O)(=O)c1cncc(-c2ccc3nc(NC(=O)NCCn4nnc(C5CC5)n4)nn3c2)c1
4,1000 nM,CN1CCN(C(=O)CNC(=O)Nc2nc3ccc(-c4cncc(S(=O)(=O)NC(C)(C)C)c4)cn3n2)CC1
5,398 nM,CC(C)(C)NS(=O)(=O)c1cncc(-c2ccc3nc(NC(=O)NCC(=O)N4CCOCC4)nn3c2)c1

# Tested on: not listed separately
# Assay: Efflux ratio of apparent permeability across human Caco2 cells
# Format: ADME, cell-based
# Conditions: Caco-2
row,SMILES,efflux ratio
1,CC(C)(C)NS(=O)(=O)c1cncc(-c2ccc3nc(NC(=O)NCCn4nnc(C5CC5)n4)nn3c2)c1,252

# Tested on: not listed separately
# Assay: Kinetic solubility in 1%DMSO solution
# Format: physicochemical
# Conditions: read-out: Kinetic_solubility
row,SMILES,solubility kinetic
1,CC(C)(C)NS(=O)(=O)c1cncc(-c2ccc3nc(NC(=O)NCC(=O)N4CCOCC4)nn3c2)c1,> 100 µM
2,CC(C)(C)NS(=O)(=O)c1cncc(-c2ccc3nc(NC(=O)NCCn4nnc(C5CC5)n4)nn3c2)c1,> 100 µM

# Tested on: Mus musculus
# Assay: Antiinflammatory activity in BALB/c mouse assessed as reduction in LPS-induced neutrophil accumulation in bronchoalveolar lung fluid at 0.5 mg, it administered 1 hr prior to LPS-challenge and measured after 8 hrs relative to vehicle treated control
# Format: functional
# Parameters: scale not given: the % may be the effect or the level left
# Conditions: not given
row,SMILES,Activity
1,CC(C)(C)NS(=O)(=O)c1cncc(-c2ccc3nc(NC(=O)NCC(=O)N4CCOCC4)nn3c2)c1,34%
2,CC(C)(C)NS(=O)(=O)c1cncc(-c2ccc3nc(NC(=O)NCCn4nnc(C5CC5)n4)nn3c2)c1,37%

# Molecular target: T1, Phosphatidylinositol 4,5-bisphosphate 3-kinase catalytic subunit delta isoform (Homo sapiens, UniProt O00329)
# T1 sequence (O00329 whole entry): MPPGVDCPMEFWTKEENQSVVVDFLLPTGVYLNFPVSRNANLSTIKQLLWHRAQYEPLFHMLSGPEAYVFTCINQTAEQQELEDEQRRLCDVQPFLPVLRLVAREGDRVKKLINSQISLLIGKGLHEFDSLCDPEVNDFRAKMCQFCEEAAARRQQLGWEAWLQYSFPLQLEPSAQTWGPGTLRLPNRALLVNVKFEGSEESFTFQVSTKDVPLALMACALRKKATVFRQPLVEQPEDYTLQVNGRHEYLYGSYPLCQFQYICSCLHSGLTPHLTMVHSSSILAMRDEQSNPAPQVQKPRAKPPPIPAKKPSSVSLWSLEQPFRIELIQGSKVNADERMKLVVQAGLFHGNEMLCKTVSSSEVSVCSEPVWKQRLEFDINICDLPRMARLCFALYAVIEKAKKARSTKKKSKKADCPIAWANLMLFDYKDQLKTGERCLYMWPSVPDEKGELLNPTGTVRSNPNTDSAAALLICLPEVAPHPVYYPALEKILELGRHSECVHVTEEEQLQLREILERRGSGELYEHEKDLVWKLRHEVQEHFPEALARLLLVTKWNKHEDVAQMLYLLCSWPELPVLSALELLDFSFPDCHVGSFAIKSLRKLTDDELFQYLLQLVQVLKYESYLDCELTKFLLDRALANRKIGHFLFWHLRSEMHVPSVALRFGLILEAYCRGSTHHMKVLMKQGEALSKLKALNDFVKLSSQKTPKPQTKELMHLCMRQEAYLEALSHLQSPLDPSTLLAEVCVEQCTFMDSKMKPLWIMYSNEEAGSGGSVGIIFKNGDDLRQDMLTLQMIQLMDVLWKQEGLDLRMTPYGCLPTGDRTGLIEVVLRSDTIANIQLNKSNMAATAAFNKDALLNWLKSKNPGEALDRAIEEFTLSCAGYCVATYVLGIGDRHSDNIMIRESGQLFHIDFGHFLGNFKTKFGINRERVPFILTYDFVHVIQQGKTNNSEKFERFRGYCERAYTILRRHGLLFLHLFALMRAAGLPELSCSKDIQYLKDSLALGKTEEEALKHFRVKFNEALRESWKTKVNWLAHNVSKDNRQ
# Assay: Inhibition of PI3Kdelta in human HL60 cell lysate by kinobead assay
# Conditions: not given
row,SMILES,IC50
1,CC(C)(C)NS(=O)(=O)c1cncc(-c2ccc3nc(NC(=O)N4CCOCC4)nn3c2)c1,3160 nM
2,CS(=O)(=O)c1cncc(-c2ccc3nc(N)nn3c2)c1,6310 nM
3,CC(C)(C)NS(=O)(=O)c1cncc(-c2ccc3nc(NC(=O)NCCCn4nnc(C5CC5)n4)nn3c2)c1,50.1 nM
4,CN(C)CCNC(=O)Nc1nc2ccc(-c3cncc(S(=O)(=O)NC(C)(C)C)c3)cn2n1,1260 nM
5,CC(C)(C)NS(=O)(=O)c1cncc(-c2ccc3nc(NC(=O)NCCc4cnccn4)nn3c2)c1,25.1 nM
6,CC(C)(C)NS(=O)(=O)c1cncc(-c2ccc3nc(N)nn3c2)c1,1580 nM

# Continued, values first:
row,IC50,SMILES
1,63.1 nM,CC(C)(C)NS(=O)(=O)c1cncc(-c2ccc3nc(NC(=O)NCC(=O)N4CCCC4)nn3c2)c1
2,15.8 nM,Cc1nc(CCNC(=O)Nc2nc3ccc(-c4cncc(S(=O)(=O)NC(C)(C)C)c4)cn3n2)cs1
3,6.31 nM,CC(C)(C)NS(=O)(=O)c1cncc(-c2ccc3nc(NC(=O)NCCn4nnc(C5CC5)n4)nn3c2)c1
4,12.6 nM,CN1CCN(C(=O)CNC(=O)Nc2nc3ccc(-c4cncc(S(=O)(=O)NC(C)(C)C)c4)cn3n2)CC1
5,15.8 nM,CC(C)(C)NS(=O)(=O)c1cncc(-c2ccc3nc(NC(=O)NCC(=O)N4CCOCC4)nn3c2)c1

# Tested on: Liver microsomes
# Assay: Intrinsic clearance in rat liver microsomes assessed per g of liver
# Format: ADME, Microsome
# Conditions: not given
row,SMILES,CLint
1,CC(C)(C)NS(=O)(=O)c1cncc(-c2ccc3nc(NC(=O)NCC(=O)N4CCOCC4)nn3c2)c1,0.8 mL/min/g
2,CC(C)(C)NS(=O)(=O)c1cncc(-c2ccc3nc(NC(=O)NCCn4nnc(C5CC5)n4)nn3c2)c1,0.4 mL/min/g
